According to publication PMC10762078, “Role of UPF1-LIN28A interaction during early differentiation of pluripotent stem cells” (Nature Communications, 2024):
Ends that are not written are not given here.

Key:
[1] = tested on: hPSCs (CHA15, H9, Pro2); experiment: Long-term culture with CPP-peptides: morphology, spontaneous differentiation, lineage marker RT-qPCR (Supplementary Fig. 6c); format: cell-based, human
Procedure: For CPP-conjugated peptide delivery, HeLa, 293T, and PA-1 cells were incubated with CPP-conjugated peptides or CPP-FITC at 2 μM in DMEM with 10% FBS for 12 h a day before cell harvest. hPSCs were treated with CPP-conjugated peptides at 10 μM in mTeSR Plus Medium, […] The ROCK inhibitor (Tocris Bioscience, Y-27632) treated-hPSCs were dissociated into single cells using Accutase (Merck, SCR005) and differentiated into ectoderm, mesoderm, and endoderm using the STEMdiff Trilineage Differentiation Kit ([…] Technologies, 05230) following the manufacturer’s protocol. Differentiated cells treated with CPP-conjugated peptides were analysed at 0, 3, and 5 days for ectoderm and endoderm, and at 0, 3, and 4 days for mesoderm. […]
cDNA was synthesised using RevertAid Reverse Transcriptase (Thermo Fisher Scientific, EP0441) with synthesised random hexamer (Macrogen) for total RNA or stem-loop primers for miRNA. For RT-qPCR reactions, the SensiFAST SYBR No-ROX kit (Meridian Bioscience) was used according to the manufacturer’s protocol. All data analysis and visualisation were conducted using R 3.6.1 [www.r-project.org] or GraphPad Prism 10. RT primers for miRNA and RT-qPCR primer sequences are provided in Supplementary Data 6. […]
Cell m orphology was visualised by phase contrast m icroscopy. T he red boundary indicated the spontaneously differentiated hPSCs. RT -qPCR was perform ed to m easure the relative levels of each lineage m ark er. […]
5p and m iR-16- 5p was shown as CDF graphs. T he relative level of m RNA was norm alised to that of U6 snRNA in (c, d, and f). K–S tests were used for e and f. Unpaired Student’s t-test was used for c , d, and f . * p < 0.05, ** p < 0.01, *** p < 0.001. Exact p -values were provided in Source data. Data are presented as m ean values ± SEM. All statistical test used were two- sided. T he m inim um num ber of independent biological replicate experim ents was a and e n = 2, b–d and f n = 3. T he experim ents were conducted three tim es, each iteration producing consistent results.

[2] = tested on: nonsense-mediated mRNA decay (NMD); experiment: NMD reporter (Gl, GPx1) mRNA by RT-qPCR in LIN28A-expressing HeLa cells with CPP-peptides (Fig. 5c); format: cell-based; details: for relative GPx1 mRNA level / relative Gl mRNA level: normalised to MUP
Procedure: Fig. 5 CPP-conjugated peptide inhibits UPF1-LIN28A interaction. a Schematic representation of designated CPP-conjugated peptides. The amino acid sequences and positions of each peptide on UPF1 are indicated. CPP-P1 and -P2 served as negative controls. CPP-FITC was used to evaluate cell-penetrating ability in cells. b 293T cell lysates co-transfected with pCMV-MYC-UPF1 and pGEX-GST-LIN28A and incubated with the indicated CPP-conjugated peptides were employed for GST pull-down. c Relative levels of NMD reporters were measured in LIN28A-expressing HeLa cells incubated with the indicated CPP-conjugated peptides. mRNA level was normalised to that of MUP mRNA. d PLA was performed using LIN28A-overexpressing HeLa cells and hPSCs in the presence of indicated peptides. Red: fluorophore in amplified DNA circle, and Blue: DAPI stained nucleus. Scale bars, 50 μm. Unpaired Student’s t-test was used. Data are presented as mean values ± SEM. All statistical test used were two-sided. The minimum number of independent biological replicate experiments was b–d n = 3. The experiments were conducted three times, each iteration producing consistent results.
For CPP-conjugated peptide delivery, HeLa, 293T, and PA-1 cells were incubated with CPP-conjugated peptides or CPP-FITC at 2 μM in DMEM with 10% FBS for 12 h a day before cell harvest. hPSCs were treated with CPP-conjugated peptides at 10 μM in mTeSR Plus Medium, and the peptide-containing medium was changed every day over 10 days. The ROCK inhibitor (Tocris Bioscience, Y-27632) treated-hPSCs were dissociated into single cells using Accutase (Merck, SCR005) and differentiated into ectoderm, mesoderm, and endoderm using the STEMdiff Trilineage Differentiation Kit ([…] Technologies, 05230) following the manufacturer’s protocol. Differentiated cells treated with CPP-conjugated peptides were analysed at 0, 3, and 5 days for ectoderm and endoderm, and at 0, 3, and 4 days for mesoderm.
Total RNA purification and RT-qPCR
Total RNA was extracted using TRIzol reagent (Invitrogen) according to the manufacturer’s protocol. After extraction, RNA was incubated with RQ1 RNase-Free DNase (Promega) to remove the exogenous and endogenous DNA.
cDNA was synthesised using RevertAid Reverse Transcriptase (Thermo Fisher Scientific, EP0441) with synthesised random hexamer (Macrogen) for total RNA or stem-loop primers for miRNA. For RT-qPCR reactions, the SensiFAST SYBR No-ROX kit (Meridian Bioscience) was used according to the manufacturer’s protocol. All data analysis and visualisation were conducted using R 3.6.1 [www.r-project.org] or GraphPad Prism 10. RT primers for miRNA and RT-qPCR primer sequences are provided in Supplementary Data 6.
Fold change in NMD efficiency represents the ratio of test NMD (PTC-containing transcript) to control NMD (PTC-free transcript), where NMD is the relative abundance of PTC-containing mRNA divided by the relative abundance of PTC-free mRNA. The abundance of MUP mRNA was used as the reference.

[3] = RT-qPCR, CHA15 cell, group 1, mean of set1-set3, Mean of A = 1
[4] = RT-qPCR, CHA15 cell, group 2, mean of set1-set3, Mean of A = 1
[5] = RT-qPCR, CHA15 cell, group 3, mean of set1-set3, Mean of A = 1
[6] = RT-qPCR, H9 cell, group 1, mean of set1-set3, Mean of A = 1
[7] = RT-qPCR, H9 cell, group 2, mean of set1-set3, Mean of A = 1
[8] = RT-qPCR, Pro2 cell, group 1, mean of set1-set3, Mean of A = 1
[9] = RT-qPCR, Pro2 cell, group 2, mean of set1-set3, Mean of A = 1
[10] = LIN28A-expressing HeLa, CPP-peptide, replicate set1
[11] = LIN28A-expressing HeLa, CPP-peptide, replicate set2
[12] = LIN28A-expressing HeLa, CPP-peptide, replicate set3

KKKWCRKKKSSADEKRYRALKRTAERELLMNA [CPP-P8, CPP conjugated to P8]
cell morphology and spontaneous differentiation ([1]; hPSCs, over 15 days): altered the cell morphology, induced spontaneous differentiation, and regulated the levels of differentiated makers | levels of differentiated markers ([1]; hPSCs, proliferation): upregulated the levels of differentiated markers | increased Gl Ter and GPx1 Ter levels caused by LIN28A ([2]; LIN28A-expressing HeLa, 2 μM, 12 h): efficiently reversed by CPP-P8

KKKWCRKKKSSADEKRYRALKRTAERELLMNA [P8]
CDH9, Mean of column B [1, 3]: 3.237 | DLK1, Mean [1, 3]: 13.42 | DMBX1, Mean [1, 3]: 7.311 | RAX, Mean [1, 3]: 3.757 | DLK1, Mean [1, 4]: 23.82 | LHX2, Mean [1, 4]: 41.74 | POU5F1, Mean of column B [1, 4]: 0.6246 | RAX, Mean [1, 4]: 18.83 | CDH9, Mean of column B [1, 5]: 2.791 | LHX2, Mean [1, 5]: 5.887 | POU5F1, Mean of column B [1, 5]: 0.7547 | RAX, Mean [1, 5]: 2.315 | DLK1, Mean [1, 6]: 3.511 | DMBX1, Mean [1, 6]: 5.531 | LHX2, Mean [1, 6]: 2.919 | PAX6, Mean of column B [1, 6]: 3.972 | DLK1, Mean [1, 7]: 2.588 | LHX2, Mean [1, 7]: 115.8 | NANOG, Mean [1, 7]: 0.1136 | TBX6, Mean of column B [1, 7]: 22.31 | DLK1, Mean [1, 8]: 6.526 | LHX2, Mean [1, 8]: 0.3053 | POU5F1, Mean of column B [1, 8]: 0.5752 | RAX, Mean [1, 8]: 3.096 | DLK1, Mean [1, 9]: 9.273 | LHX2, Mean [1, 9]: 16.93 | NANOG, Mean [1, 9]: 0.2569 | POU5F1, Mean of column B [1, 9]: 0.08931 | relative GPx1 mRNA level [2, 10]: 1.006 | relative Gl mRNA level [2, 10]: 1.305 | relative GPx1 mRNA level [2, 11]: 1.229 | relative Gl mRNA level [2, 11]: 0.7968 | relative GPx1 mRNA level [2, 12]: 0.4585 | relative Gl mRNA level [2, 12]: 1.128 | GPx1 mRNA, mean ([2]; LIN28A-expressing HeLa, CPP-peptide, mean in t-test output, n = 3): 0.2385 | GPx1 mRNA, difference between means (C - B) ± SEM ([2]; LIN+P8 minus LIN+P1): -0.4015 ± 0.06473 | Gl mRNA, difference between means (C - B) ± SEM ([2]; LIN+P8 minus LIN+P1): -1.443 ± 0.3024

N-QKLDQKELQLEPM-C [P1, reference compound]
relative Gl mRNA level ([2]; FLAG control (no LIN28A) HeLa, CPP-peptide, replicate set2): 1.21 | relative GPx1 mRNA level ([2]; FLAG control (no LIN28A) HeLa, CPP-peptide, replicate set3): 1.026 | relative GPx1 mRNA level [2, 10]: 2.435 | relative Gl mRNA level [2, 10]: 3.179 | relative GPx1 mRNA level [2, 11]: 2.54 | relative Gl mRNA level [2, 11]: 5.571 | relative GPx1 mRNA level [2, 12]: 2.254 | relative Gl mRNA level [2, 12]: 4.729
